Where only a bound is given, the exact number is not on record here.

The text below walks through data of patent publication US8198273B2, “Compounds and methods for kinase modulation, and indications therefor” (Plexxikon Inc., priority 2009, dated 2012).

Data set [1] addresses B-Raf (Homo sapiens, UniProt P15056). The experiment in a line: B-Raf biochemical kinase inhibition (AlphaScreen, biotin-MEK1 substrate). The note with it: 100 μM ATP. In a few lines:
(§1)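 IC50 derived from AlphaScreen signal plotted against compound concentration. Final ATP 100 μM; 3 h incubation at room temperature. Eight-point 3-fold dilution series prepared from a 0.1 mM DMSO stock.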

Data set [2] concerns the target c-Raf-1 (Homo sapiens, UniProt P04049). The experiment in a line: c-Raf-1 biochemical kinase inhibition (AlphaScreen, biotin-MEK1 substrate). The note with it: 100 μM ATP. In a few lines: as §1
In general terms: Alpha assays give light when donor and acceptor beads are brought close together.

Data set [3] is described as follows: Relative solubility by turbidity in aqueous buffers of varying pH. The data set is classed as physicochemical. In a few lines:
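Turbidity endpoint: concentration where optical density at 490, 535 and 650 nm exceeds 0.01, three-wavelength average used. Buffers at pH 1.5, 4.5, 6.8 and 7.4; DMSO serial dilutions of 25 mM stock spiked 1 μL into 99 μL buffer. Low <31.3, moderate 31.3–250, high >250 μM.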

Data set [4] addresses T1, CYP1A2 (Homo sapiens, UniProt P05177).
T1 sequence (P05177 1-516): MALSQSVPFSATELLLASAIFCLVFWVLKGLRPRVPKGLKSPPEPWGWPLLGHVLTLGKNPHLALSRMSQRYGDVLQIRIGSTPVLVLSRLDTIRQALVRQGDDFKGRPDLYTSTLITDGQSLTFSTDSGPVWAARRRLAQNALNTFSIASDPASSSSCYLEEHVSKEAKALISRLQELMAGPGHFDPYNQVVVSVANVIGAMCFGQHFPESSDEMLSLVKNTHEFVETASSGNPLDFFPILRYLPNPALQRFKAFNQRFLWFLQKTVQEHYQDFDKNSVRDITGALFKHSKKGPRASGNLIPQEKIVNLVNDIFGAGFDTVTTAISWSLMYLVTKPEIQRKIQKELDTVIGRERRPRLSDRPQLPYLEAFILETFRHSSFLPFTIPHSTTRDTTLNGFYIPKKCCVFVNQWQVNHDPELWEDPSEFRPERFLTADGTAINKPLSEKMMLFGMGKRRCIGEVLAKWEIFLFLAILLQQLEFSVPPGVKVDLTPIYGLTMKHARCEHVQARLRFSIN
The experiment in a line: CYP1A2 inhibition (fluorescent substrate). The data set is classed as in vitro ADME. The settings on record: CYP1A2, CEC substrate; read-out: Cyp IC50 1A2. An outline of the steps: (§2)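 IC50 values come from plotting product fluorescence against compound concentration; inhibition lowers formation of the fluorescent metabolite. Ten-point twofold dilutions in co-factor mix were held 10 minutes at 37 °C before the enzyme reaction, also run at 37 °C.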

Data set [5] has as its target CYP2C19 (Homo sapiens, UniProt P33261). The data set can be described thus: CYP2C19 inhibition (fluorescent substrate). The settings on record: CYP2C19, CEC substrate; read-out: Cyp IC50 2C19. The data set is classed as in vitro ADME. In a few lines:
as §2

Data set [6] has as its target CYP2C9 (Homo sapiens, UniProt P11712). The data set can be described thus: CYP2C9 inhibition (fluorescent substrate). The data set is classed as in vitro ADME. The note with it: CYP2C9, MFC substrate; read-out: Cyp IC50 2C9. An outline of the steps:
as §2

For data set [7], the target named is CYP3A4(BQ) (Homo sapiens, UniProt P08684). The experiment in a line: CYP3A4(BQ) inhibition (fluorescent substrate). The data set is classed as in vitro ADME. The note with it: read-out: Cyp IC50 3A4(BQ). An outline of the steps: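 Inhibition was followed as loss of fluorescent metabolite from a known substrate, with compound in co-factor mix as a 10-point 1:1 serial dilution (100 mM DMSO stock).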
Chain of CYP3A4(BQ) (P08684 whole entry): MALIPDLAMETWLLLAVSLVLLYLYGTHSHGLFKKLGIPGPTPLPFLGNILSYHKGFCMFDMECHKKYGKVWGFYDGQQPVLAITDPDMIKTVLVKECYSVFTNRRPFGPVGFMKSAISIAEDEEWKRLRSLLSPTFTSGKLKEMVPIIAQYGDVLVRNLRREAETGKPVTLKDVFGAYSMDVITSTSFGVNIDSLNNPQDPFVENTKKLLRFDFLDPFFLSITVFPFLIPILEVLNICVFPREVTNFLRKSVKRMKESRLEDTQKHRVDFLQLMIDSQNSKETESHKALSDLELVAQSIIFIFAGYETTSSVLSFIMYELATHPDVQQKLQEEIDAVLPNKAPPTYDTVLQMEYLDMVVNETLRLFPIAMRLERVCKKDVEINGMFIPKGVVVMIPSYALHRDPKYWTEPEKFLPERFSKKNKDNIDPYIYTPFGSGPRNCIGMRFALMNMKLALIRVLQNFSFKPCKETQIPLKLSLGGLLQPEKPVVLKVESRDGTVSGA

Chain of c-Raf-1 (P04049 whole entry): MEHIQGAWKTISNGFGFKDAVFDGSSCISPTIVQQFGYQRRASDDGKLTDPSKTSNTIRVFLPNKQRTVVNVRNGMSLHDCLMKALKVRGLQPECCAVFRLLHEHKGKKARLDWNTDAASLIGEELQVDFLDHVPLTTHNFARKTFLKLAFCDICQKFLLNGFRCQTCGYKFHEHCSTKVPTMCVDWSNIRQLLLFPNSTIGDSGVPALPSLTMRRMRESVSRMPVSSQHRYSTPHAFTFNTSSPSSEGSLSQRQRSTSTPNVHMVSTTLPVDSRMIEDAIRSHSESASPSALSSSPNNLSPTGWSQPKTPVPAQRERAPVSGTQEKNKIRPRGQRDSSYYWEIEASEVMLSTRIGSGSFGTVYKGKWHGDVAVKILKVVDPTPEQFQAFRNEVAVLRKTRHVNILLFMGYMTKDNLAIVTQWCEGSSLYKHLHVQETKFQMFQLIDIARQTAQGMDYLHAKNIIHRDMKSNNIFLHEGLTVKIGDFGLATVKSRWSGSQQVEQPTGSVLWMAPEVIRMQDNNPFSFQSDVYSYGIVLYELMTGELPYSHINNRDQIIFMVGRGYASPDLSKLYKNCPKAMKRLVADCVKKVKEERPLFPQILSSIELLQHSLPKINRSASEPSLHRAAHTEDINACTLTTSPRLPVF
Chain of CYP2C19 (P33261 whole entry): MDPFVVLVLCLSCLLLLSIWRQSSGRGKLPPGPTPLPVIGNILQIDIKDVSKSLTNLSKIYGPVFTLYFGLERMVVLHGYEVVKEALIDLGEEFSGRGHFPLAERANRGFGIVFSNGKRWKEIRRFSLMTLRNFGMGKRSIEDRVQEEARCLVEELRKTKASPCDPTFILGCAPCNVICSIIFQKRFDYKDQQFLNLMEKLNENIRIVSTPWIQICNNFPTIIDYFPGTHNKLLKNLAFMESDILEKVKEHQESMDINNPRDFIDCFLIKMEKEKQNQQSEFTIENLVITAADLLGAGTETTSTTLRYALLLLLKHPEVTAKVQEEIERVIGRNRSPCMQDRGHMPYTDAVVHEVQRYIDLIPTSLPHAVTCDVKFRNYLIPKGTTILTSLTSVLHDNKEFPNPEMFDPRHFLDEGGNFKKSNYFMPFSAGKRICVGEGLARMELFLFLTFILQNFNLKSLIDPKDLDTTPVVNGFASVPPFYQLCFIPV
Chain of CYP2C9 (P11712 whole entry): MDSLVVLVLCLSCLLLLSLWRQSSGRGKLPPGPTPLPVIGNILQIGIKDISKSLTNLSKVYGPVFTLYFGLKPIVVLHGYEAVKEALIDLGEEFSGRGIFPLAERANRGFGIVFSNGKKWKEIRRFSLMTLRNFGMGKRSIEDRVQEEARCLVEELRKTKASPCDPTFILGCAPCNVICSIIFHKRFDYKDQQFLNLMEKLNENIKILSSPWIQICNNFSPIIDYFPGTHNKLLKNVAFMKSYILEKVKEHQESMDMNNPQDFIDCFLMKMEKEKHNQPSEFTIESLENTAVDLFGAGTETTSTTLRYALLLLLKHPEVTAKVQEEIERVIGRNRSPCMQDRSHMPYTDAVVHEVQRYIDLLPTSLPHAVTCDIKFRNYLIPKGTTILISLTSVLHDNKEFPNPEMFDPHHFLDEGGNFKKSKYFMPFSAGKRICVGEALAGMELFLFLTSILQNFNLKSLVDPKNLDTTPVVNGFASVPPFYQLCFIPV
Chain of B-Raf (P15056 whole entry): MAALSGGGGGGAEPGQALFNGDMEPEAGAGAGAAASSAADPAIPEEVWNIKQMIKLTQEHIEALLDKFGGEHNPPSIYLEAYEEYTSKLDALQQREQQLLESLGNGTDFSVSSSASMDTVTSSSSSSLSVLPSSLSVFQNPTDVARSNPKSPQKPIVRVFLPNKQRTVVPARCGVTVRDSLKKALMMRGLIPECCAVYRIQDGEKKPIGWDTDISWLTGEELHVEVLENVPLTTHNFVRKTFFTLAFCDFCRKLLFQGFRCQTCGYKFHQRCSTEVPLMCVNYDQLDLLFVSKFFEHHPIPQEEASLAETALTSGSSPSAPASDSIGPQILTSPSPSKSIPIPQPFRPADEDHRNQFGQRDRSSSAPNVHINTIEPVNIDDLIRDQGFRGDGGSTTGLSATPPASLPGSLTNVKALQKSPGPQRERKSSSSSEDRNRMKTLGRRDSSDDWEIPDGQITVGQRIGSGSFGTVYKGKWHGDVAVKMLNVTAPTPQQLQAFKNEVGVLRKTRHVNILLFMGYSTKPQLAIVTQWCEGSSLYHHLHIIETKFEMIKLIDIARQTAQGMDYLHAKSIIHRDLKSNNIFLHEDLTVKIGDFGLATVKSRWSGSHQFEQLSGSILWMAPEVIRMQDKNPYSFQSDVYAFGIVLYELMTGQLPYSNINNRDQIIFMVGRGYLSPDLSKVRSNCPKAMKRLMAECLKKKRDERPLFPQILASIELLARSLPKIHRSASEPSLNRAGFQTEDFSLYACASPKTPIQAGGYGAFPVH

`CCCS(=O)(=O)Nc1ccc(F)c(C(=O)c2c[nH]c3ncc(-c4ccc(N(C)C)nc4)cc23)c1F` [P-2229, Propane-1-sulfonic acid {3-[5-(6-dimethylamino-pyridin-3-yl)-1H-pyrrolo[2,3-b]pyridine-3-carbonyl]-2,4-difluoro-phenyl}-amide]: the IC50 in data set [1] was less than 0.1 µM; in data set [2], less than 0.1 µM; in data set [4], more than 10 µM; in data set [5] it was more than 10 µM; in data set [6] it was 5 to 10 µM; in data set [7], more than 10 µM. The “turbidity threshold (L, M, H) 7.4” value in data set [3] (HEPES pH 7.4) was “M (moderate solubility if the threshold concentration is 31.3 μM to 250 μM)”. For the same compound, in data set [3] (SIF pH 4.5), the “turbidity threshold (L, M, H) 4.5” value was “L (low solubility if the threshold concentration is <31.3 04)”. The “turbidity threshold (L, M, H) 6.8” value in data set [3] (SIF pH 6.8) was “M (moderate solubility if the threshold concentration is 31.3 μM to 250 μM)”. Also, the “turbidity threshold (L, M, H) 1.4” value in data set [3] (buffer pH 1.4 (SGF)) is “M (moderate solubility if the threshold concentration is 31.3 μM to 250 μM)”.

The IC50 is the concentration needed to halve the response being measured.
